Assay results as given in the NIST ThermoML archive (doi:10.1016/j.jct.2012.02.035).
Numbers after ± are expanded uncertainties.

Tests used:
[1] = Molar enthalpy of transition or fusion; details: DSC
[2] = Solid-liquid equilibrium temperature; details: 101 kPa; Crystal 2; DTA
[3] = Crystal; DTA

CC[N+](CC)(CC)CC.O=[N+]([O-])[O-] [tetraethylammonium nitrate]
Molar enthalpy of transition or fusion ([1]; Crystal 2): 2.58 ± 0.0956 kcal/mol | Solid-liquid equilibrium temperature [2]: 371.5 ± 0.3 K

CCCC[N+](CCCC)(CCCC)CCCC.O=[N+]([O-])[O-] [tetrabutylammonium nitrate]
Molar enthalpy of transition or fusion ([1]; Crystal 2): 0.0478 ± 0.0239 kcal/mol | Molar enthalpy of transition or fusion ([1]; Crystal): 3.42 ± 0.12 kcal/mol | Normal melting temperature [3]: 118.0 ± 1.1 °C | Solid-liquid equilibrium temperature [2]: 361.4 ± 0.2 K
